Earlier results, collected in patent publication US20250319037A1, “METHODS OF DELIVERING THERAPEUTIC AGENTS, AND LIPID COMPOSITIONS” (FUJIFILM Corporation, priority 2022, published 2025).

Conditions: Non-patent documents 11 and 12

In the case of `CC(C)CCC[C@@H](C)[C@H]1CC[C@H]2[C@@H]3CC=C4C[C@@H](OC(=O)NCCN(C)C)CC[C@]4(C)[C@H]3CC[C@]12C` [DC-cholesterol], the “pKa of the tertiary amine group” value is listed as 7.8.
